pKi: −log10 of the molar value.
Each compound was assayed against Protein kinase C alpha type (Homo sapiens, UniProt P17252) (assay: Displacement of [20-3H]phorbol-12,13-dibutyrate from a recombinant PK-C alpha).

Going from `CCCCCCCCCCCCC/C=C1\CC(CO)(COS(C)(=O)=O)OC1=O` (centres undefined) to `CCCCCCCCCCCCCCS(=O)(=O)OCC1(CO)CCC(=O)O1` (centres undefined), the pKi rises from 6.08 to 7.04 (0.96 log units).

Going from `CCCCCCCCCCCCCC(=O)OCC1(CO)CCS(=O)(=O)O1` (centres undefined) to `CCCCCCCCCCCCC/C=C1\CC(CO)(COC(C)=O)OS1(=O)=O` (centres undefined), the pKi rises from 5.98 to 6.49 (0.51 log units).

From ChEMBL document CHEMBL1130875, “Conformationally constrained analogues of diacylglycerol (DAG). 14. Dissection of the roles of the sn-1 and sn-2 carbonyls in DAG mimetics by isopharmacophore replacement” (Bioorg Med Chem Lett, 1998)
